Test results as given in patent publication US8877748B2, “Heterocyclic fused anthraquinone derivatives, manufacturing method and pharmaceutical composition using thereof” (National Defense Medical Center, priority 2012, dated 2014).

Key:
[1] = system: TK-10; experiment: NCI one-dose screening, renal cancer TK-10; assay type: cell-based, human; details: 10 μM
[2] = system: SK-MEL-5; experiment: NCI one-dose screening, melanoma SK-MEL-5; assay type: cell-based, human; details: 10 μM
[3] = system: M14; experiment: NCI one-dose screening, melanoma M14; assay type: cell-based, human; details: 10 μM
[4] = system: NCI-H226; experiment: NCI one-dose screening, non-small cell lung cancer NCI-H226; assay type: cell-based, human; details: 10 μM
[5] = system: RXF, 393; experiment: NCI one-dose screening, renal cancer RXF, 393; assay type: cell-based, human; details: 10 μM
[6] = system: CAKI-1; experiment: NCI one-dose screening, renal cancer CAKI-1; assay type: cell-based, human; details: 10 μM
[7] = system: PC-3; experiment: NCI one-dose screening, prostate cancer PC-3; assay type: cell-based, human; details: 10 μM
[8] = system: NCI-H23; experiment: NCI one-dose screening, non-small cell lung cancer NCI-H23; assay type: cell-based, human; details: 10 μM
[9] = system: HCT-15; experiment: NCI one-dose screening, colon cancer HCT-15; assay type: cell-based, human; details: 10 μM
[10] = system: KM12; experiment: NCI one-dose screening, colon cancer KM12; assay type: cell-based, human; details: 10 μM
[11] = system: T-47D; experiment: NCI one-dose screening, breast cancer T-47D; assay type: cell-based, human; details: 10 μM
[12] = system: MCF7; experiment: NCI one-dose screening, breast cancer MCF7; assay type: cell-based, human; details: 10 μM
[13] = system: HOP-62; experiment: NCI one-dose screening, non-small cell lung cancer HOP-62; assay type: cell-based, human; details: 10 μM
[14] = system: A549/ATCC; experiment: NCI one-dose screening, non-small cell lung cancer A549/ATCC; assay type: cell-based, human; details: 10 μM
[15] = system: K562cell line; experiment: NCI one-dose screening, leukemia K562; assay type: cell-based, human; details: 10 μM
[16] = system: NCI-H460; experiment: NCI one-dose screening, non-small cell lung cancer NCI-H460; assay type: cell-based, human; details: 10 μM
[17] = system: SK-MEL-28; experiment: NCI one-dose screening, melanoma SK-MEL-28; assay type: cell-based, human; details: 10 μM
[18] = system: NCl/ADR-RES; experiment: NCI one-dose screening, breast cancer NCl/ADR-RES; assay type: cell-based, human; details: 10 μM; listed under Ovarian cancer
[19] = system: human tumor cell lines; experiment: NCI one-dose screening, Mean / Delta / Range of growth percent over all tested cell lines; assay type: cell-based; details: 10 μM
[20] = system: SF-268; experiment: NCI one-dose screening, CNS cancer SF-268; assay type: cell-based, human; details: 10 μM
[21] = system: HCT-116; experiment: NCI one-dose screening, colon cancer HCT-116; assay type: cell-based, human; details: 10 μM
[22] = system: UACC-62; experiment: NCI one-dose screening, melanoma UACC-62; assay type: cell-based, human; details: 10 μM
[23] = system: SK-MEL-2; experiment: NCI one-dose screening, melanoma SK-MEL-2; assay type: cell-based, human; details: 10 μM
[24] = system: SNB-75; experiment: NCI one-dose screening, CNS cancer SNB-75; assay type: cell-based, human; details: 10 μM
[25] = system: SK-OV-3; experiment: NCI one-dose screening, ovarian cancer SK-OV-3; assay type: cell-based, human; details: 10 μM
[26] = system: UACC-257; experiment: NCI one-dose screening, melanoma UACC-257; assay type: cell-based, human; details: 10 μM
[27] = system: MOLT-4; experiment: NCI one-dose screening, leukemia MOLT-4; assay type: cell-based, human; details: 10 μM
[28] = system: MALME-3M; experiment: NCI one-dose screening, melanoma MALME-3M; assay type: cell-based, human; details: 10 μM
[29] = system: LOX IMVI; experiment: NCI one-dose screening, melanoma LOX IMVI; assay type: cell-based, human; details: 10 μM
[30] = system: MDA, -MB-435; experiment: NCI one-dose screening, breast cancer MDA, -MB-435; assay type: cell-based, human; details: 10 μM; listed under Melanoma
[31] = system: SF-539; experiment: NCI one-dose screening, CNS cancer SF-539; assay type: cell-based, human; details: 10 μM
[32] = system: SNB-19; experiment: NCI one-dose screening, CNS cancer SNB-19; assay type: cell-based, human; details: 10 μM
[33] = system: UO-31; experiment: NCI one-dose screening, renal cancer UO-31; assay type: cell-based, human; details: 10 μM
[34] = system: OVCAR-5; experiment: NCI one-dose screening, ovarian cancer OVCAR-5; assay type: cell-based, human; details: 10 μM
[35] = system: HCC-2998; experiment: NCI one-dose screening, colon cancer HCC-2998; assay type: cell-based, human; details: 10 μM
[36] = system: NCI-H522; experiment: NCI one-dose screening, non-small cell lung cancer NCI-H522; assay type: cell-based, human; details: 10 μM
[37] = system: HL-60, TB; experiment: NCI one-dose screening, leukemia HL-60, TB; assay type: cell-based, human; details: 10 μM
[38] = system: OVCAR-3; experiment: NCI one-dose screening, ovarian cancer OVCAR-3; assay type: cell-based, human; details: 10 μM
[39] = system: PRMI-8226 cell line; experiment: NCI one-dose screening, leukemia PRMI-8226; assay type: cell-based, human; details: 10 μM
[40] = system: EKVX; experiment: NCI one-dose screening, non-small cell lung cancer EKVX; assay type: cell-based, human; details: 10 μM
[41] = system: IGROV1; experiment: NCI one-dose screening, ovarian cancer IGROV1; assay type: cell-based, human; details: 10 μM
[42] = system: OVCAR-8; experiment: NCI one-dose screening, ovarian cancer OVCAR-8; assay type: cell-based, human; details: 10 μM
[43] = system: BT-549; experiment: NCI one-dose screening, breast cancer BT-549; assay type: cell-based, human; details: 10 μM
[44] = system: HS 578-T; experiment: NCI one-dose screening, breast cancer HS 578-T; assay type: cell-based, human; details: 10 μM; Breast cancer
[45] = system: SN12C; experiment: NCI one-dose screening, renal cancer SN12C; assay type: cell-based, human; details: 10 μM
[46] = system: HOP-92; experiment: NCI one-dose screening, non-small cell lung cancer HOP-92; assay type: cell-based, human; details: 10 μM
[47] = NCI one-dose screening, renal cancer A489; assay type: cell-based, human; details: 10 μM
[48] = system: ACHN; experiment: NCI one-dose screening, renal cancer ACHN; assay type: cell-based, human; details: 10 μM
[49] = system: PC-3 prostate cancer cell line; experiment: SRB assay cell viability, PC-3 prostate cancer cell line; assay type: cell-based, human; details: Homo sapiens, PC-3 prostate cancer cell line, Table II prints no unit, μM printed, read-out: SRB assay: 50% inhibition of cancer cell proliferation of sample concentration (IC50) of PC-3 prostate cancer cell line
[50] = system: U251; experiment: NCI one-dose screening, CNS cancer U251; assay type: cell-based, human; details: 10 μM
[51] = system: MDA-MB-231/ATCC; experiment: NCI one-dose screening, breast cancer MDA-MB-231/ATCC; assay type: cell-based, human; details: 10 μM
[52] = system: SF-295; experiment: NCI one-dose screening, CNS cancer SF-295; assay type: cell-based, human; details: 10 μM
[53] = system: 786-O; experiment: NCI one-dose screening, renal cancer 786-O; assay type: cell-based, human; details: 10 μM
[54] = system: SR; experiment: NCI one-dose screening, leukemia SR; assay type: cell-based, human; details: 10 μM
[55] = system: DU145; experiment: NCI one-dose screening, prostate cancer DU145; assay type: cell-based, human; details: 10 μM
[56] = system: HT29; experiment: NCI one-dose screening, colon cancer HT29; assay type: cell-based, human; details: 10 μM
[57] = system: COLO 205; experiment: NCI one-dose screening, colon cancer COLO 205; assay type: cell-based, human; details: 10 μM
[58] = system: MDA-MB-468; experiment: NCI one-dose screening, breast cancer MDA-MB-468; assay type: cell-based, human; details: 10 μM

## O=C1c2ccccc2C(=O)c2c1cc(Sc1ccc(F)cc1F)c1nsnc21 [C39, 4-(2,4-difluorophenylthio)anthra[2,1-c] [1,2,5]thiadiazol-6,11-dione]
[1]
  Growth Percent TK-10: 111.93%
[2]
  Growth Percent SK-MEL-5: 48.53%
[3]
  Growth Percent M14: 53.77%
[4]
  Growth Percent NCI-H226: 88.85%
[5]
  Growth Percent RXF 393: 36.69%
[6]
  Growth Percent CAKI-1: 24.02%
[7]
  Growth Percent PC-3: −9.72%
[8]
  Growth Percent NCI-H23: 9.53%
[9]
  Growth Percent HCT-15: 45.84%
[10]
  Growth Percent KM12: 51.79%
[11]
  Growth Percent T-47D: −28.61%
[12]
  Growth Percent MCF7: 6.58%
[13]
  Growth Percent HOP-62: 58.46%
[14]
  Growth Percent A549/ATCC: 111.54%
[15]
  Growth Percent K562: −21.06%
[16]
  Growth Percent NCI-H460: 83.60%
[17]
  Growth Percent SK-MEL-28: 79.45%
[18]
  Growth Percent NCI/ADR-RES: −26.24%
[19]; delta over all cell lines
  Growth Percent Delta: 119.50%
[19]; mean over all cell lines
  Growth Percent Mean: 32.54%
[19]; range over all cell lines
  Growth Percent Range: 198.89%
[20]
  Growth Percent SF-268: 8.47%
[21]
  Growth Percent HCT-116: −63.06%
[22]
  Growth Percent UACC-62: 53.27%
[23]
  Growth Percent SK-MEL-2: 51.79%
[24]
  Growth Percent SNB-75: 42.86%
[25]
  Growth Percent SK-OV-3: 92.58%
[26]
  Growth Percent UACC-257: 43.93%
[27]
  Growth Percent MOLT-4: −41.57%
[28]
  Growth Percent MALME-3M: 39.46%
[29]
  Growth Percent LOX IMVI: −42.03%
[30]
  Growth Percent MDA-MB-435: −85.27%
[31]
  Growth Percent SF-539: 58.79%
[32]
  Growth Percent SNB-19: 87.35%
[33]
  Growth Percent UO-31: 70.30%
[34]
  Growth Percent OVCAR-5: 110.21%
[35]
  Growth Percent HCC-2998: 107.02%
[36]
  Growth Percent NCI-H522: 61.06%
[37]
  Growth Percent HL-60(TB): −37.71%
[38]
  Growth Percent OVCAR-3: −52.32%
[39]
  Growth Percent RPMI-8226: 6.29%
[40]
  Growth Percent EKVX: 98.12%
[41]
  Growth Percent IGROV1: 975%
[42]
  Growth Percent OVCAR-8: 0.32%
[43]
  Growth Percent BT-549: 66.40- Percent
[44]
  Growth Percent HS 578T: 50.08%
[45]
  Growth Percent SN12C: 9.12%
[46]
  Growth Percent HOP-92: −18.39%
[47]
  Growth Percent A498: 50.80%
[48]
  Growth Percent ACHN: 34.93%
[49]
  IC50: 14.8 µM
[50]
  Growth Percent U251: 34.47%
[51]
  Growth Percent MDA-MB-231/ATCC: −9.73%
[52]
  Growth Percent SF-295: 68.77%
[53]
  Growth Percent 786-0: 3.74%
[54]
  Growth Percent SR: 0.20%
[55]
  Growth Percent DU145: 41.32%
[56]
  Growth Percent HT29: 102.45%
[57]
  Growth Percent COLO 205: 104.04%
[58]
  Growth Percent MDA-MB-468: −86.96%
